Data: patent publication US8697641B2, “4-amino-4-oxobutanoyl peptide cyclic analogues, inhibitors of viral replication” (Achillion Pharmaceuticals, Inc., priority 2008, dated 2014)

Each molecule was assayed on Hepatitis C replicon (assay: HCV replicon assay (NPT ELISA readout) in Huh-7 replicon-containing cells). Settings: Hepatitis C virus, 72 h; HCV replicon in Huh-7 cells, three days incubation.
Type: cell-based, Hepatitis C virus
In short: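 Replication is measured as neomycin phosphotransferase level by captured ELISA after three days of compound exposure (typically 10 to 0.03 μM, 6 concentrations) at 37 °C. Cells are Huh-7 harbouring an HCV replicon with neo gene and NS3-NS5B; interferon alpha is the positive control.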
`COc1ccc2c(O[C@@H]3C[C@H]4C(=O)N[C@]5(C(=O)NS(=O)(=O)C6CC6)C[C@H]5/C=C\CCCCC[C@H](CC(=O)NC5CCCC5)C(=O)N4C3)cc(-c3ccccc3)nc2c1` [Compound 73, (2R,6R,13aS,14aR, 16aS,Z)-6-(2-(cyclopentylamino)-2-oxoethyl)-N-(cyclopropylsulfonyl)-2-(7-methoxy-2-phenylquinolin-4-yloxy)-5,16-dioxo-1,2,3,5,6,7,8,9,10,11, 13a,14,14a,15,16,16a-hexadecahydrocyclopropa [e]pyrrolo[1,2-a][1,4] diazacyclopentadecine-14a-carboxamide] was tested, and the EC50 was under 1000 nM. For `COc1ccc2c(O[C@@H]3C[C@H]4C(=O)N[C@]5(C(=O)NS(=O)(=O)C6CC6)C[C@H]5/C=C\CCCCC[C@H](CC(=O)N5CCCCC5)C(=O)N4C3)cc(-c3ccccn3)nc2c1` [Compound 74, (2R,6R,13aS, 14aR,16aS,Z)-N-(cyclopropylsulfonyl)-2-(7-methoxy-2-(pyridin-2-yl)quinolin-4-yloxy)-5,16-dioxo-6-(2-oxo-2-(piperidin-1-yl)ethyl)-1,2,3,5,6,7,8,9,10,11, 13a,14,14a,15,16,16a-hexadecahydrocyclopropa [e]pyrrolo[1,2-a][1,4] diazacyclopentadecine-14a-carboxamide], the EC50 was under 1000 nM. Work on `COc1ccc2c(O[C@@H]3C[C@H]4C(=O)N[C@]5(C(=O)NS(=O)(=O)C6CC6)C[C@H]5/C=C\CCCCC[C@H](CC(=O)N5CCOC(C)C5)C(=O)N4C3)cc(-c3ccccc3)nc2c1` (stereo partly drawn) [Compound 75, (2R,6R,13aS, 14aR,16aS,Z)-N-(cyclopropylsulfonyl)-2-(7-methoxy-2-phenylquinolin-4-yloxy)-6-(2-(2-methylmorpholino)-2-oxoethyl)-5,16-dioxo-1,2,3,5,6,7,8,9,10,11, 13a,14,14a,15,16,16a-hexadecahydrocyclopropa [e]pyrrolo[1,2-a][1,4] diazacyclopentadecine-14a-carboxamide] yielded an EC50 of under 1000 nM. In the case of `COc1ccc2c(O[C@@H]3C[C@H]4C(=O)N[C@]5(C(=O)NS(=O)(=O)C6CC6)C[C@H]5/C=C\CCCCC[C@H](CC(=O)N5CC(C)OC(C)C5)C(=O)N4C3)cc(-c3ccccc3)nc2c1` (stereo partly drawn) [Compound 76, (2R,6R,13aS, 14aR,16aS,Z)-N-(cyclopropylsulfonyl)-6-(2-(2,6-dimethylmorpholino)-2-oxoethyl)-2-(7-methoxy-2-phenylquinolin-4-yloxy)-5,16-dioxo-1,2,3,5,6,7,8,9,10,11, 13a,14,14a,15,16,16a-hexadecahydrocyclopropa [e]pyrrolo[1,2-a][1,4] diazacyclopentadecine-14a-carboxamide], the EC50 is reported as under 1000 nM. Molecule `COc1ccc2c(O[C@@H]3C[C@H]4C(=O)N[C@]5(C(=O)NS(=O)(=O)C6CC6)C[C@H]5/C=C\CCCCC[C@H](CC(=O)N5CC6CC5CO6)C(=O)N4C3)cc(-c3ccccc3)nc2c1` (stereo partly drawn) [Compound 77, (2R,6R,13aS,14aR, 16aS,Z)-6-(2-(2-oxa-5-azabicyclo[2.2.1]heptan-5-yl)-2-oxoethyl)-N-(cyclopropylsulfonyl)-2-(7-methoxy-2-phenylquinolin-4-yloxy)-5,16-dioxo-1,2,3,5,6,7,8,9,10,11, 13a,14,14a,15,16,16a-hexadecahydrocyclopropa [e]pyrrolo[1,2-a][1,4] diazacyclopentadecine-14a-carboxamide] has an EC50 of under 1000 nM. With `COc1ccc2c(O[C@@H]3C[C@H]4C(=O)N[C@]5(C(=O)NS(=O)(=O)C6CC6)C[C@H]5/C=C\CCCCC[C@H](CC(=O)N5CCCC(C)C5)C(=O)N4C3)cc(-c3ccccc3)nc2c1` (stereo partly drawn) [Compound 78, (2R,6R,13aS, 14aR,16aS,Z)-N-(cyclopropylsulfonyl)-2-(7-methoxy-2-phenylquinolin-4-yloxy)-6-(2-(3-methylpiperidin-1-yl)-2-oxoethyl)-5,16-dioxo-1,2,3,5,6,7,8,9,10,11, 13a,14,14a,15,16,16a-hexadecahydrocyclopropa [e]pyrrolo[1,2-a][1,4] diazacyclopentadecine-14a-carboxamide] the EC50 was under 1000 nM. `O=C(N[C@@H]1C[C@H]2C(=O)N[C@]3(C(=O)NS(=O)(=O)C4CC4)C[C@H]3/C=C\CCCCC[C@H](CC(=O)N3CCC(F)(F)CC3)C(=O)N2C1)c1cc(-c2ccccc2)nc2ccccc12` [Compound 79, (2R,6R,13aS, 14aR,16aS,Z)-N-(cyclopropylsulfonyl)-6-(2-(4,4-difluoropiperidin-1-yl)-2-oxoethyl)-5,16-dioxo-2-(2-phenylquinoline-4-carboxamido)-1,2,3,5,6,7,8,9,10,11, 13a,14,14a,15,16,16a-hexadecahydrocyclopropa [e]pyrrolo[1,2-a][1,4] diazacyclopentadecine-14a-carboxamide] showed an EC50 of under 1000 nM. For `O=C(N[C@@H]1C[C@H]2C(=O)N[C@]3(C(=O)NS(=O)(=O)C4CC4)C[C@H]3/C=C\CCCCC[C@H](CC(=O)N3CCCCC3)C(=O)N2C1)c1cc(-c2ccccc2)nc2ccccc12` [Compound 81, (2R,6R,14aR,16aS,Z)-N-(cyclopropylsulfonyl)-5,16-dioxo-6-(2-oxo-2-(piperidin-1-yl)ethyl)-2-(2-phenylquinoline-4-carboxamido)-1,2,3,5,6,7,8,9,10,11, 13a,14,14a,15,16,16a-hexadecahydrocyclopropa [e]pyrrolo[1,2-a][1,4] diazacyclopentadecine-14a-carboxamide], the EC50 was under 1000 nM. `O=C1N[C@]2(C(=O)NS(=O)(=O)C3CC3)C[C@H]2/C=C\CCCCC[C@H](CC(=O)N2CCC(F)(F)CC2)C(=O)N2C[C@H](Oc3cc(-c4ccccn4)nc4c5c(ccc34)OCC5)C[C@@H]12` [Compound 82, (2R,6R,14aR,16aS,Z)-N-(cyclopropylsulfonyl)-6-(2-(4,4-difluoropiperidin-1-yl)-2-oxoethyl)-5,16-dioxo-2-(2-(pyridin-2-yl)-8,9-dihydrofuro[2,3-h]quinolin-4-yloxy)-1,2,3,5,6,7,8,9,10,11, 13a,14,14a,15,16,16a-hexadecahydrocyclopropa [e]pyrrolo[1,2-a][1,4] diazacyclopentadecine-14a-carboxamide] gave an EC50 of under 1000 nM. With `O=C1N[C@]2(C(=O)NS(=O)(=O)C3CC3)C[C@H]2/C=C\CCCCC[C@H](CC(=O)N2CCC(C(F)(F)F)CC2)C(=O)N2C[C@H](Oc3cc(-c4ccccn4)nc4c5c(ccc34)OCC5)C[C@@H]12` [Compound 83, (2R,6R,14aR,16aS,Z)-N-(cyclopropylsulfonyl)-5,16-dioxo-6-(2-oxo-2-(4-(trifluoromethyl)piperidin-1-yl)ethyl)-2-(2-(pyridin-2-yl)-8,9-dihydrofuro[2,3-h]quinolin-4-yloxy)-1,2,3,5,6,7,8,9,10,11, 13a,14,14a,15,16,16a-hexadecahydrocyclopropa [e]pyrrolo[1,2-a][1,4] diazacyclopentadecine-14a-carboxamide] the EC50 was under 1000 nM. `O=C1N[C@]2(C(=O)NS(=O)(=O)C3CC3)C[C@H]2/C=C\CCCCC[C@H](CC(=O)N2CCCCC2)C(=O)N2C[C@H](Oc3cc(-c4ccccn4)nc4c5c(ccc34)OCC5)C[C@@H]12` [Compound 84, (2R,6R,14aR,16aS,Z)-N-(cyclopropylsulfonyl)-5,16-dioxo-6-(2-oxo-2-(piperidin-1-yl)ethyl)-2-(2-(pyridin-2-yl)-8,9-dihydrofuro[2,3-h]quinolin-4-yloxy)-1,2,3,5,6,7,8,9,10,11, 13a,14,14a,15,16,16a-hexadecahydrocyclopropa [e]pyrrolo[1,2-a][1,4] diazacyclopentadecine-14a-carboxamide] was tested, and the EC50 was over 10000 nM.
